Measurements as given in publication PMC9599461, “Stereoselectivity in the Membrane Transport of Phenylethylamine Derivatives by Human Monoamine Transporters and Organic Cation Transporters 1, 2, and 3” (Biomolecules, 2022).
Like-named read-outs stand apart in the source and are kept apart here. Marks after values point to notes of the source that are not given here.

Legend:
SERT [1] = target: T1, SERT (Homo sapiens, UniProt P31645);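 note: uptake into HEK293 cells stably expressing human SERT over 2 min, enantiomers measured in cell lysate by chiral HPLC-MS/MS, normalized to total protein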
NET = NET (Homo sapiens, UniProt P23975); assay: Stereoselective uptake into NET-overexpressing HEK293 cells; settings: for Vmax ± SEM / Km: HEK293 cells overexpressing human NET, racemic substrate, two minutes; for Vmax ± SEM: net uptake; for Clint ± SEM / Stereoselectivity ClInt / Stereoselectivity Vmax / Stereoselectivity Km: NET; for Clint ± SEM: quotient of vmax over Km; for Stereoselectivity ClInt / Stereoselectivity Vmax / Stereoselectivity Km: ratio between enantiomers; for Stereoselectivity ClInt / Stereoselectivity Vmax: given as for (S) or for 2; for Stereoselectivity Km: given as for (S) or for 2 (second-eluting); for Km: read-out: Km ± SEM, net uptake minus empty vector control;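 for all read-outs here: intracellular enantiomers quantified in cell lysates by chiral HPLC-MS/MS after a 2 min substrate incubation, with uptake normalized to total cellular protein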
DAT = DAT (Homo sapiens, UniProt Q01959); assay: Stereoselective uptake into DAT-overexpressing HEK293 cells;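 note: intracellular accumulation measured by chiral HPLC-MS/MS in stably transfected HEK293 cells, normalized to total protein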
SERT [2] = target: T1, SERT; assay: Stereoselective uptake into SERT-overexpressing HEK293 cells; settings: for Vmax ± SEM / Km: HEK293 cells overexpressing human SERT, racemic substrate, two minutes; for Vmax ± SEM: net uptake; for Clint ± SEM: SERT, quotient of vmax over Km; for Km: read-out: Km ± SEM, net uptake minus empty vector control;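 for all read-outs here: uptake into HEK293 cells stably expressing human SERT over 2 min, enantiomers measured in cell lysate by chiral HPLC-MS/MS, normalized to total protein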
OCT1 = target: T2, OCT1 (Homo sapiens, UniProt O15245); assay: Stereoselective uptake into OCT1-overexpressing HEK293 cells; settings: for Vmax ± SEM / Km: HEK293 cells overexpressing human OCT1, racemic substrate, two minutes; for Vmax ± SEM: net uptake; for Clint ± SEM: quotient of vmax over Km; for Km: read-out: Km ± SEM, net uptake minus empty vector control;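 for all read-outs here: enantiomers quantified inside cells by chiral HPLC-MS/MS, uptake normalized to total protein from bicinchoninic acid assay, substrates applied in HBSS+ buffer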
T2 sequence (O15245 1-554): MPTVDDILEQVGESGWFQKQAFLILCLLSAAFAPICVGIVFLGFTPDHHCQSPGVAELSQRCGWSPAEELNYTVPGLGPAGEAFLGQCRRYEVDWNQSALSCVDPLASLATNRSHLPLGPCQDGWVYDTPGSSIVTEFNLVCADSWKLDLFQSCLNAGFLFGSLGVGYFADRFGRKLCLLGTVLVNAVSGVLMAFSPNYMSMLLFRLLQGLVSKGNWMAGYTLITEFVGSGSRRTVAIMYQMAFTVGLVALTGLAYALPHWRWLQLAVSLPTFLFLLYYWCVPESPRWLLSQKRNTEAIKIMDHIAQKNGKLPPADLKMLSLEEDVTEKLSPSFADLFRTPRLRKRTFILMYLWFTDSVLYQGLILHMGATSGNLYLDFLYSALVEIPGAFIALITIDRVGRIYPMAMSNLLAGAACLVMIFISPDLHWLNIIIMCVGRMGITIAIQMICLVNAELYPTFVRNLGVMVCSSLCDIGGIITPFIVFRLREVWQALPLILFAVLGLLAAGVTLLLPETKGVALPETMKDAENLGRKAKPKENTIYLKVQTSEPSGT

OCT3 = target: T3, OCT3 (Homo sapiens, UniProt O75751); assay: Stereoselective uptake into OCT3-overexpressing HEK293 cells; settings: for Vmax ± SEM / Km: HEK293 cells overexpressing human OCT3, racemic substrate, two minutes; for Vmax ± SEM: net uptake; for Clint ± SEM: quotient of vmax over Km; for Stereoselectivity Vmax: given as for (R) or for 1; for Km: read-out: Km ± SEM, net uptake minus empty vector control;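 for all read-outs here: intracellular accumulation in HEK293 cells measured by chiral HPLC-MS/MS after a 2 min substrate exposure at 37 °C, uptake normalized to total protein (bicinchoninic acid assay)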
T3 sequence (O75751 1-556): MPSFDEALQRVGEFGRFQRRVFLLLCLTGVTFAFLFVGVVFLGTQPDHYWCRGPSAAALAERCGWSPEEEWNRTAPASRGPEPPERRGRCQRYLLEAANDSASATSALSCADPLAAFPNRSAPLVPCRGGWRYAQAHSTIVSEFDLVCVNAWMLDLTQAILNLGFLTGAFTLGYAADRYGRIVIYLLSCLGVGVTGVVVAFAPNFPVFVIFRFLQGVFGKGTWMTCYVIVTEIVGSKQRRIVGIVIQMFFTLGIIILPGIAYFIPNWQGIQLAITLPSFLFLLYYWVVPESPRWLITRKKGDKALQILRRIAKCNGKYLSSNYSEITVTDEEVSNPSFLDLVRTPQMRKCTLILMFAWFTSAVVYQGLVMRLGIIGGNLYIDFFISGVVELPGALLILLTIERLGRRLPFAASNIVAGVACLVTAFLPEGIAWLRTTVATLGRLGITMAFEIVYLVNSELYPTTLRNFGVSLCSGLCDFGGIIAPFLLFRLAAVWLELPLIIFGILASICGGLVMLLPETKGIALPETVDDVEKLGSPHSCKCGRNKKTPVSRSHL

OCT2 [3] = target: T4, OCT2 (Homo sapiens, UniProt O15244); assay: Stereoselective uptake into OCT2 (wild-type)-overexpressing HEK293 cells; settings: for Vmax ± SEM / Km: HEK293 cells overexpressing human OCT2, racemic substrate, two minutes; for Vmax ± SEM: net uptake; for Clint ± SEM: OCT2, quotient of vmax over Km; for Km: read-out: Km ± SEM, net uptake minus empty vector control
T4 sequence (O15244 1-555 S270A): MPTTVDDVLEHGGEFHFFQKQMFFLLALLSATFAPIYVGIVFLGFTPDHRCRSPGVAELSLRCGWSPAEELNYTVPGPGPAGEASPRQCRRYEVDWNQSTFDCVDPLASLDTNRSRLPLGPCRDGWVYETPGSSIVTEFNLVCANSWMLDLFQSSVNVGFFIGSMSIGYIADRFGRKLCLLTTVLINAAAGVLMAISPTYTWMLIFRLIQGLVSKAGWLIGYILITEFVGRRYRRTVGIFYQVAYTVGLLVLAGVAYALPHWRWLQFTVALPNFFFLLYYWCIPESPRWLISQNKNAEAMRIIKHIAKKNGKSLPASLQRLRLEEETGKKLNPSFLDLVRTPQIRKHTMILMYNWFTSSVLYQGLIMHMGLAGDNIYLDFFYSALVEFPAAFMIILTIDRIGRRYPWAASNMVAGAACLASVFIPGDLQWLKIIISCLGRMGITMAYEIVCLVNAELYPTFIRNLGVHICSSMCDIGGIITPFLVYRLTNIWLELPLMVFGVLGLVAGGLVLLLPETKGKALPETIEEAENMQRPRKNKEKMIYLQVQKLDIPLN

OCT2 [4] = target: T5, OCT2 (Homo sapiens, UniProt O15244, S270A); assay: as above; settings: OCT2, ratio between enantiomers; for Stereoselectivity Km: given as for (R) or for 1 (first-eluting)
T5 sequence (O15244 1-555 S270A): T4 sequence (O15244 1-555 S270A)

OCT2 A270S variant = assay: Stereoselective uptake into OCT2 A270S variant-overexpressing HEK293 cells; settings: 100 μM racemic substance, two minutes; for Transporter selectivity: OCT2 wild-type versus A270S, given as for WT;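 for all read-outs here: uptake into HEK293 cells stably overexpressing human OCT2 variants, intracellular enantiomers quantified by chiral HPLC-MS/MS and normalized to total protein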
Description: All transport experiments were carried out in HEK293 cells stably overexpressing human MATs or OCTs. […] All cells were regularly cultivated in DMEM supplemented with 10% (v/v) FCS, penicillin (100 U/mL) and streptomycin (100 μg/mL)and kept in culture for no longer than 30 passages.
For the uptake experiments, 300,000 cells were plated in poly-D-lysine precoated 24-well plates 48 h ahead of the transport experiment. On the day of experiment, cells were initially washed once with 37 °C pre-warmed HBSS+ (Hanks buffered salt solution supplemented with 10 mM HEPES) and subsequently incubated with the substrates dissolved in pre-warmed HBSS+ for exactly two minutes. Incubation was stopped by adding ice-cold HBSS+ followed by two washing steps. After this, cells were lysed with 80% acetonitrile containing 10 ng/mL milnacipran as internal standard for high-performance liquid chromatography coupled to tandem mass spectrometry (HPLC-MS/MS) analysis. For every experiment, two additional wells per cell line were lysed using RIPA buffer for protein quantification. Total protein was quantified using the bicinchoninic acid assay [42]. This was later used for normalization of the uptake data.
Intracellularly accumulated test substances were quantified by HPLC-MS/MS analysis using a Shimadzu Nexera HPLC system with a SIL-30AC autosampler, a CTO-20AC column oven, a LC-30AD pump, and a CBM-20A controller (Shimadzu, Kyoto, Japan). Stereoselective chromatography was carried out on a [sequence] CBH HPLC column (100 × 3 mm inner dimension with 5 μM particle size; Sigma-Aldrich, Darmstadt, Germany) with a corresponding 10 × 3 mm guard column. Reversed phased chromatography was carried out using an ammonium acetate (NH4Ac) buffered aqueous mobile phase with isopropyl alcohol (IPA) as organic solvent. […] The order of elution of the enantiomers was obtained from available reference literature [43] or by applying enantiopure reference compounds to the chiral HPLC. […] However, in every other case where the order of elution was available, the (R)-enantiomer eluted first. Given the structural similarity of the investigated substances and the fact that separation was performed on the same column with almost identical mobile phases, we assume that this order of elution for our compound set is always the (R)- before the (S)-enantiomer.
Detection was performed with an API 4000 tandem mass spectrometer (AB SCIEX, Darmstadt, Germany) operating in multiple-reaction-monitoring mode. Quantification was performed using the Analyst 1.6.2 software (AB SCIEX, Darmstadt, Germany) and quantified by comparison to standard curves with known concentrations.
All uptake data were normalized to protein content to account for variation in the number of seeded sells. Transporter-mediated net uptake was calculated by subtracting uptake into empty vector-transfected control cells from uptake into transporter-transfected cells. Kinetic parameters were then determined after non-linear regression following the Michaelis–Menten equation (v = vmax × [S]/(Km + [S])) using GraphPad Prism (Version 5.01 for Windows, GraphPad Software, La Jolla, CA, USA). Vmax refers to the maximum transport velocity and Km is defined as the substance concentration required to reach half of vmax. The intrinsic clearance Clint was calculated as the quotient of vmax over Km.
HEK293 cells stably overexpressing wild-type or mutant OCT2 were incubated with 100 μM racemic substance for two minutes.

[5] = OCT3, ratio between enantiomers
[6] = DAT, ratio between enantiomers, given as for (S) or for 2
[7] = OCT1, ratio between enantiomers, given as for (S) or for 2

Chain of DAT (Q01959 whole entry): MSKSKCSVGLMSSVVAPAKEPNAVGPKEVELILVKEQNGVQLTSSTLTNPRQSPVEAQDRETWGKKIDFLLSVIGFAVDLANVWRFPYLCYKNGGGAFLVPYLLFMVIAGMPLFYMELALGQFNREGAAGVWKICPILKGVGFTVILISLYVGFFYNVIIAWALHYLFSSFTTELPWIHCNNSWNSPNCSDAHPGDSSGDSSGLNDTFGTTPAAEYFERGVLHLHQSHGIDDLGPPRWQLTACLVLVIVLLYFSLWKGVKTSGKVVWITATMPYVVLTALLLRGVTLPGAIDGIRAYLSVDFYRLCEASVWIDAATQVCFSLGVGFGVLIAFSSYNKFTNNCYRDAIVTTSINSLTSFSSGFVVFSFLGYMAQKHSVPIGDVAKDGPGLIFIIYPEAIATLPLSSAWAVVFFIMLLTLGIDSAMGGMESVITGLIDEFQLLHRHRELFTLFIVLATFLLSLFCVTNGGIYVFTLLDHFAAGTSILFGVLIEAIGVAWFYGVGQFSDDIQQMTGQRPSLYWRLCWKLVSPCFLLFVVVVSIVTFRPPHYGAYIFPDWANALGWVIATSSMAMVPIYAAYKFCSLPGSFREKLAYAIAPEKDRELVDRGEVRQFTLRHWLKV
T1 sequence (P31645 whole entry): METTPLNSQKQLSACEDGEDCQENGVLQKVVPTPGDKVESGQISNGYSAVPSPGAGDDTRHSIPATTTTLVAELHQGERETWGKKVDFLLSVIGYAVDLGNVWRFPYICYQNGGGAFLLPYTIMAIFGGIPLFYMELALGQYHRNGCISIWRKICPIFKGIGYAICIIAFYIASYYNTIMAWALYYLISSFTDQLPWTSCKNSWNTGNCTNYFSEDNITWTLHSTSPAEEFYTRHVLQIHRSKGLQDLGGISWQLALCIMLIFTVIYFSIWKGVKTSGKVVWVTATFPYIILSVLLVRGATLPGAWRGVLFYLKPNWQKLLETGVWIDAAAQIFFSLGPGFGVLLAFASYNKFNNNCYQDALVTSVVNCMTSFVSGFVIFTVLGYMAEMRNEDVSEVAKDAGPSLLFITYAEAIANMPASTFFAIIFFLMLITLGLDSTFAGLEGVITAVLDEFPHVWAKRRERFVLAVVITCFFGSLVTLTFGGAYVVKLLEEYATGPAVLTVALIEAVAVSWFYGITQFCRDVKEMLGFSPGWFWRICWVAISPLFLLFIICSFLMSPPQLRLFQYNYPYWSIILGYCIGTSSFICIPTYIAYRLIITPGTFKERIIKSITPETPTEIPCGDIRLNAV
Chain of NET (P23975 whole entry): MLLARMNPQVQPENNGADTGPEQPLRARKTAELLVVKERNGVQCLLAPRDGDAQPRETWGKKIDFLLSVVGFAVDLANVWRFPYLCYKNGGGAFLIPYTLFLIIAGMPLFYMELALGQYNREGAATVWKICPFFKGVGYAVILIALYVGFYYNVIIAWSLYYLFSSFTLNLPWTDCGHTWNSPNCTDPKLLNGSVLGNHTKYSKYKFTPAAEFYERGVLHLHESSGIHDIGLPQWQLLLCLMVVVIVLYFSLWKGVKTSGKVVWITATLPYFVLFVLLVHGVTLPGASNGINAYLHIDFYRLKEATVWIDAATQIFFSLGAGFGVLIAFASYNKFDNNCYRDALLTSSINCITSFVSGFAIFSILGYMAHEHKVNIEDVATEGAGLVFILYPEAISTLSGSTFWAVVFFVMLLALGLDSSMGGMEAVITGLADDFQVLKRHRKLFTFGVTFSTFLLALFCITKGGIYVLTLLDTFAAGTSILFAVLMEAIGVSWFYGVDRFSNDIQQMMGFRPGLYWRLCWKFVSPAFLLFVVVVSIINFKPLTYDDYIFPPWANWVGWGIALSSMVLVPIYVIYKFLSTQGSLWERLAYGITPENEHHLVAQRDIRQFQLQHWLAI

Row | Structure (SMILES) | Stereoselectivity ClInt (SERT [1]) | Vmax ± SEM (NET) | Clint ± SEM (NET) | Stereoselectivity ClInt (NET) | Stereoselectivity Vmax (NET) | Stereoselectivity Km (NET) | Km (NET) [µM] | Stereoselectivity Km (SERT [2]) | Stereoselectivity Vmax (SERT [2]) | Vmax ± SEM (SERT [2]) | Clint ± SEM (SERT [2]) | Km (SERT [2]) [µM] | Vmax ± SEM (OCT1) | Clint ± SEM (OCT1; OCT1) | Km (OCT1) [µM] | Vmax ± SEM (OCT3) | Clint ± SEM (OCT3; OCT3) | Stereoselectivity Vmax (OCT3; [5]) | Km (OCT3) [µM] | Vmax ± SEM (OCT2 [3]) | further results
1 | C[C@@H]1NCCc2cc(O)c(O)cc21 [Salsolinol-1, Salsolinol] | 2.48 fold | 112 pmol × mg Protein^−1 × min^−1 | 1.24 mL × g Protein^−1 × min^−1 | 1.19 fold | 1.35 fold | 1.13 fold | 90.1 | 1.85 fold | 1.34 fold | 229 pmol × mg Protein^−1 × min^−1 | 1.77 mL × g Protein^−1 × min^−1 | 129 | 1450 pmol × mg Protein^−1 × min^−1 | 10.9 mL × g Protein^−1 × min^−1 | 133 | 705 pmol × mg Protein^−1 × min^−1 | 3.80 mL × g Protein^−1 × min^−1 | 1.01 fold | 186 | 9083 pmol × mg Protein^−1 × min^−1 | Saturable net uptake (DAT; DAT, result in words): No saturable net uptake; Stereoselectivity ClInt (OCT1; OCT1, ratio between enantiomers, given as for (R) or for 1 (also 1.00-fold for 1/2)): 1.00 fold; Stereoselectivity ClInt (OCT3): 1.21 fold; Stereoselectivity Km (OCT3; OCT3, ratio between enantiomers, given as for (S) or for 2 (second-eluting)): 1.20 fold; Clint ± SEM (OCT2 [3]): 40.9 mL × g Protein^−1 × min^−1; Km (OCT2 [3]): 222 µM; Stereoselectivity Km (OCT2 [4]): 1.04 fold; Stereoselectivity ClInt (OCT2 [4]; given as for (S) or for 2): 1.05 fold; Stereoselectivity Vmax (OCT2 [4]; given as for (S) or for 2): 1.01 fold; Net uptake by A270S variant in comparison to the wild-type (OCT2 A270S variant): 66%; Transporter selectivity (OCT2 A270S variant; listed as (R)-Salsolinol): 1.50 fold
2 | NC[C@@H](O)c1ccc(O)c(O)c1 [(S)-Norepinephrine] | 1.78-fold for (R) | 362 ± 20 pmol × mg Protein^−1 × min^−1 | 118.7 ± 46.0 mL × g Protein^−1 × min^−1 | 1.05-fold for (S) | 1.38-fold for (S) ** | 1.32-fold for (S) | 3.05 ± 1.01 | 1.01-fold for (R) | 1.79-fold for (R) ** | 405 ± 42 pmol × mg Protein^−1 × min^−1 | 2.31 ± 0.93 mL × g Protein^−1 × min^−1 | 175 ± 52.2 | 1766 ± 258 pmol × mg Protein^−1 × min^−1 | 0.48 ± 0.20 mL × g Protein^−1 × min^−1 | 3710 ± 1010 | 3662 ± 299 pmol × mg Protein^−1 × min^−1 | 7.05 ± 2.73 mL × g Protein^−1 × min^−1 | 1.01-fold for (R) | 519 ± 158 | 3042 ± 258 pmol × mg Protein^−1 × min^−1 | Clint ± SEM (DAT; DAT, quotient of vmax over Km): 155.5 ± 21.4 mL × g Protein^−1 × min^−1; Stereoselectivity ClInt (DAT; [6]): 1.12-fold for (S); Stereoselectivity Vmax (DAT; [6]): 1.47-fold for (S) ***; Stereoselectivity Km (DAT; DAT, ratio between enantiomers, given as for (S) or for 2 (second-eluting)): 1.31-fold for (S); Vmax ± SEM (DAT; HEK293 cells overexpressing human DAT, racemic substrate, two minutes, net uptake): 4524 ± 122 pmol × mg Protein^−1 × min^−1; Km (DAT; read-out: Km ± SEM, HEK293 cells overexpressing human DAT, racemic substrate, two minutes, net uptake minus empty vector control): 29.1 ± 3.2 µM; Stereoselectivity ClInt (OCT1; [7]): 1.06-fold for (S); Stereoselectivity Vmax (OCT1; [7]): 1.16-fold for (S); Stereoselectivity Km (OCT1; OCT1, ratio between enantiomers, given as for (S) or for 2 (second-eluting)): 1.09-fold for (S); Stereoselectivity Km (OCT3; OCT3, ratio between enantiomers, given as for (R) or for 1 (first-eluting)): 1.07-fold for (R); Stereoselectivity ClInt (OCT3; OCT3, ratio between enantiomers, given as for (S) or for 2): 1.07-fold for (S); Clint ± SEM (OCT2 [3]): 2.32 ± 0.71 mL × g Protein^−1 × min^−1; Km (OCT2 [3]): 1310 ± 291 µM; Stereoselectivity ClInt (OCT2 [4]; given as for (R) or for 1): 1.64-fold for (R); Stereoselectivity Vmax (OCT2 [4]; given as for (R) or for 1): 2.17-fold for (R) **; Stereoselectivity Km (OCT2 [4]): 1.32-fold for (R); Transporter selectivity (OCT2 A270S variant): 1.22 fold
